For orientation: IC50 means the midpoint of a concentration-inhibition curve. The low end stands for higher potency, the high end for lower potency.

We go through seven compounds from publication PMC8152782, “Synthesis and evaluation of bis(imino)anthracene derivatives as G-quadruplex ligands” (RSC Medicinal Chemistry, 2021).

SMILES strings stand for the structures. Where two headings read alike, the source gives them in different places.

The subject of test [1] is HeLa cells. In words: Presto blue cell viability assay, HeLa cells. To be noted: 24 hour incubation, n = 3. Type of test: cell-based, Human. The procedure: Fig. 3 Cell culture, presto blue assay results for 2a, 2b, 2c, 2d, 2e. The data shown is after 24 hour incubation of drug treated HeLa cells. Top chart illustrates mean and SEM of HeLa cell viability at concentrations 100 to 1 μM with positive control (doxorubicin (N2)). In the top charts, values are normalized to negative control (DMSO) at a value of 1 (cell viability). The bottom charts then show the normalized absorbance percentage to the negative control (percentage cell viability) of log inhibitor concentration (multiplied by 10 to account for 1 μM concentration) IC50 values and R squared values are included in the chart. Error bars indicates standard error of mean from n = 3 experiments.
Compounds 2a–2e were subsequently tested against a HeLa cancer cell line (HeLa, American Type Culture Collection (ATCC) (ATCC® CCL-2™)) and they were all prepared in 100, 30, 10 and 1 μM concentrations so that IC50 values could be calculated to establish whether drugs were cytotoxic to HeLa cells (see ESI ^† S1).
Cell suspension (200μl) containing 5000 healthy HeLa cells was seeded in 96-well plates (BDFalcon, Franklin Lakes, NJ) and allowed to attach and stabilize overnight at 37 °C with 5%
CO2. Aspiration of media and rinsing solution was done through pipetting off liquid. Cell viability was then tested with PrestoBlue assay.The presto blue assay was carried out in light sensitive conditions. 100μl of PrestoBlue solution (10% in medium) was added to each well and the plates were incubated at 37 °C for 1 hour. After incubation time, the change in florescence was measured at 570/600 nm using a Spectra Max fluorescence multi-well plate reader.
Dissociation constants were calculated using the curve-fitting software Graphpad Prism 8.
Incubation was done using Thermofisher Steri-Cycle CO2 Incubators and for plate reading Thermofisher Epoch Microplate Spectrophotometer was used. Centrifugation was done by Thermo Scientific Sorvall ST 40 Centrifuge Series.
Commercially available DMEM (Dulbecco’s Modified Eagle Medium- low glucose), including sodium pyruvate and […], 500 mL, was obtained from Gibco, USA. All procedures carried out under sterile conditions, 94 mL of media was taken and the required volume of supplements (10 % Fetal Bovine Serum (FBS), 2 mM/mL Glutamine, 100 U/mL penicillin and 100 µg/mL streptomycin.) were added.
Cell Line and Cell Culture Conditions
Human cervical cancer cell lines (HeLa) were obtained from the American Type Culture Collection (ATCC) (ATCC® CCL-2™). HeLa cells were cultured in Dulbecco’s Eagle Modified Medium low glucose (DMEM) containing 10 % Fetal Bovine Serum (FBS), 2 mM/mL Glutamine, 100 U/mL penicillin and 100 µg/mL streptomycin.
%viable cells = 1 ‒ Number of blue cells x 100 […]
Cryovials were taken from the liquid nitrogen tank and thawed quickly at 37 °C. After that, the cell suspension was transferred to a 15 mL tube and 5 mL of the medium was added into the cell suspension drop by drop with gentle shaking. Centrifugation was done at 1500rpm for 5 min and then supernatant was discarded. After the pellet was resuspended with medium, they were seeded to T-25 flasks. Subsequent to 12 hours incubation, the media was removed and washed with DPBS (1X) (pH:7.4) containing 10 mM sodium dibasic phosphate, 2.7 mM KCI, 2 mM Potassium phosphate,137 mM NaCI. Fresh media was added to the cell monolayer a […]
Assays were carried out using a 96 well plate. This 96-well plate contains one blank, 3 controls which contains cells including a negative control with media, one vehicle control which is DMSO and medium solutions, and a positive control of Doxorubicin (200µL) and media. Drugs were prepared in 100, 30, 10, 1 µM concentrations to make 8 seeded well plates in total which were done in triplicate. All drugs were prepared in DMSO and then diluted in media to give 5µL of DMSO max in 100µM treatments which is controlled by vehicle with a DMSO volume

The subject of test [2] is d(TTGGGTT)4. In words: NMR titration of ligands with G-quadruplex oligonucleotide. Type of test: binding. To be noted: for Difference from 11.55 ppm (ppm) G3NH: 1H NMR chemical shift difference of G-quadruplex peak G3NH on ligand addition; for Difference from 11.22 ppm (ppm) G4NH: 1H NMR chemical shift difference of G-quadruplex peak G4NH on ligand addition; for Difference from 10.86 ppm (ppm) G5NH: 1H NMR chemical shift difference of G-quadruplex peak G5NH on ligand addition; for Difference from 1.58 ppm (ppm) T6CH3: 1H NMR chemical shift difference of G-quadruplex peak T6CH3 on ligand addition; for Difference from 7.23 ppm (ppm) T6H6/8: 1H NMR chemical shift difference of G-quadruplex peak T6H6/8 on ligand addition; for Δδ (ppm): G quadruplex chemical shift difference. The procedure: Compounds 2a–2e were evaluated for G-quadruplex interaction using NMR titration studies with d(TTGGGTT)4 with intercalation comparisons made against doxorubicin and nemorubicin (see ESI ^† S1). […] We also see the peaks for T6 (methyl, aromatic and ribose) shifting to a lower field in accord with the up-field shift of the G5 peaks. This change is explained by the formation of a complex between the ligand and the tetrad formed at G5, which pushes the T6 unit away from the guanine π-system. This intercalation framework agreed with ESI/MS carried out which illustrated a 1 : 1 complex.[17]
Maximum line broadening occurs at a ratio of 1 : 1 drug to G-quadruplex and chemical shift difference changing up to 1 : 1 with the bound and unbound peaks being present. […]
This oligonucleotide solvent mix was then micro-pipetted at a volume of 0.6ml into NMR tubes. Stock solutions of drug compounds in DMSO-d6 were used to make up the molar ratios of 0.125:1, 0.25:1, 0.5:1 and 1:1 drug to oligomer.
A non-active drug (TC102) and DMSO on its own were added as controls to validate that the effects on the spectra were from cytotoxic elements of the drug compounds rather than the effects from DMSO or addition of compound, which could change environment, pH or shimming of NMR instrument.
Spectra were acquired at 300 K using a Bruker Avance III 600MHz FT‐NMR. The WATERNOESY parameter set which executes the pulse sequence noesygppr1d (Bruker, size […]
experiments with a pre-saturation delay during relaxation and mixing time (experiment time:
14 min 44 sec). With this pulse sequence, all non-exchangeable protons are detected in the deuterated D2O/H2O buffer solution. T1 relaxation experiments were acquired for d1 calibration with a modified version of the zggpw5 pulse sequence. With a saturation recovery […]
pulse and using water suppression (Bruker, size of fid 65536/11 F2/F1, […]
(experimental time 1 h 4 min 6 sec).
Bruker Topspin 3.5 pl7 was used for assignment of peaks, manual phasing, baseline correction and manual integration. Manual integration was done to ensure bias and slope was correct and that the integrals were all of the same width. Calculation of chemical shift change done through built in top spin distance measurements between peaks.

Test [3] deals with d(TTGGGTT)4. More on the design: method as in PMID 26922833. The conditions noted are these: G quadruplex chemical shift difference; cited from earlier work.

In test [1] (Homo sapiens, HeLa, 24 h), `C(=N\Cc1ccc2c(c1)OCO2)/c1c2ccccc2c(/C=N/Cc2ccc3c(c2)OCO3)c2ccccc12` [Compound 2a] yielded a half-inhibitory concentration (IC50) of 18.1 µM. Also, in test [2], the “Difference from 11.55 ppm (ppm) G3NH” value is given as −0.04 ppm, the “Difference from 11.22 ppm (ppm) G4NH” value is given as −0.08 ppm, the “Difference from 10.86 ppm (ppm) G5NH” value is on record as −0.2 ppm and the “Difference from 1.58 ppm (ppm) T6CH3” value amounted to 0.09 ppm. Moreover, in test [2], the “Difference from 7.23 ppm (ppm) T6H6/8” value turned out to be 0.17 ppm and the “Δδ (ppm)” value is listed as 0.2 ppm.
Take `C(=N\CCCN1CCOCC1)/c1c2ccccc2c(/C=N/CCCN2CCOCC2)c2ccccc12` [Compound 2b]: half-maximal inhibition in test [1] (Homo sapiens, HeLa, 24 h) (IC50) required 24.4 µM. Also, in test [2], the “Difference from 11.55 ppm (ppm) G3NH” value was −0.066 ppm, the “Difference from 11.22 ppm (ppm) G4NH” value was −0.135 ppm, the “Difference from 10.86 ppm (ppm) G5NH” value is on record as −0.34 ppm and the “Difference from 1.58 ppm (ppm) T6CH3” value came out at 0.093 ppm. For the same compound, in test [2], the “Difference from 7.23 ppm (ppm) T6H6/8” value amounted to 0.22 ppm and the “Δδ (ppm)” value is reported as 0.34 ppm.
In test [1], `C(=N\CCc1c[nH]c2ccccc12)/c1c2ccccc2c(/C=N/CCc2c[nH]c3ccccc23)c2ccccc12` [Compound 2c] showed an IC50 of 30.6 µM. Further, in test [1] (Homo sapiens, HeLa, 24 h), the midpoint of inhibition, the IC50, lay at 30.5 µM. In test [2], the “Difference from 11.55 ppm (ppm) G3NH” value was −0.06 ppm, the “Difference from 11.22 ppm (ppm) G4NH” value is on record as −0.115 ppm, the “Difference from 10.86 ppm (ppm) G5NH” value is on record as −0.25 ppm and the “Difference from 1.58 ppm (ppm) T6CH3” value stood at 0.157 ppm. In test [2], the “Difference from 7.23 ppm (ppm) T6H6/8” value worked out at 0.126 ppm and the “Δδ (ppm)” value is 0.25 ppm.
In the case of `C(=N\CCN1CCCCC1)/c1c2ccccc2c(/C=N/CCN2CCCCC2)c2ccccc12` [Compound 2d], it took 23.8 µM to reach half-maximal inhibition in test [1] (IC50). The compound also displayed a concentration for half-maximal inhibition (IC50) in test [1] (Homo sapiens, HeLa, 24 h) of 24 µM. Besides, in test [2], the “Difference from 11.55 ppm (ppm) G3NH” value is −0.03 ppm, the “Difference from 11.22 ppm (ppm) G4NH” value is reported as −0.07 ppm, the “Difference from 10.86 ppm (ppm) G5NH” value is −0.13 ppm and the “Difference from 1.58 ppm (ppm) T6CH3” value stood at 0.094 ppm. For the same compound, in test [2], the “Difference from 7.23 ppm (ppm) T6H6/8” value was found to be 0.16 ppm and the “Δδ (ppm)” value was 0.13 ppm.
Take `Cc1cnc(/N=C/c2c3ccccc3c(/C=N/c3ncc(C)s3)c3ccccc23)s1` [Compound 2e]: in test [1] (Homo sapiens, HeLa, 24 h), 20.5 µM corresponded to half-maximal inhibition (IC50). In addition, in test [2], the “Difference from 11.55 ppm (ppm) G3NH” value was −0.056 ppm, the “Difference from 11.22 ppm (ppm) G4NH” value is recorded as −0.11 ppm, the “Difference from 10.86 ppm (ppm) G5NH” value is on record as −0.24 ppm and the “Difference from 1.58 ppm (ppm) T6CH3” value is reported as 0.146 ppm. In test [2], the “Difference from 7.23 ppm (ppm) T6H6/8” value turned out to be 0.19 ppm and the “Δδ (ppm)” value is 0.24 ppm.
With `COc1cccc2c1C(=O)c1c(O)c3c(c(O)c1C2=O)C[C@@](O)(C(=O)CO)C[C@@H]3O[C@H]1C[C@H](N)[C@H](O)[C@H](C)O1` [Doxorubicin], in test [3], the “Δδ (ppm)” value is 0.31 ppm.
On to `COc1cccc2c1C(=O)c1c(O)c3c(c(O)c1C2=O)C[C@@](O)(C(=O)CO)C[C@@H]3O[C@H]1C[C@H](N2CCO[C@H](OC)C2)[C@H](O)[C@H](C)O1` [Nemorubicin], for which the “Δδ (ppm)” value in test [3] is 0.31 ppm.
